Assay results published in publication PMC6440935, “Characterization and phase I study of CLR457, an orally bioavailable pan-class I PI3-kinase inhibitor” (Investigational New Drugs, 2018).
Like-named read-outs stand apart in the source and are kept apart here.

[1] = drug-related, All Patients, N = 31
[2] = drug-related, all patients N = 31
[3] = suspected related, all patients

Excerpt: The primary objective was to define the maximum tolerated dose (MTD). Secondary objectives included assessments for safety, tolerability, pharmacokinetic (PK) profile, and preliminary antitumor activity.
Patients had histologically documented locally advanced or metastatic solid tumors harboring an activating PIK3CA mutation or amplification, PTEN loss of function, c-MET activation, [16, 17] […] Other key inclusion criteria included age ≥ 18 years, Eastern Cooperative Oncology Group performance status (ECOG-PS) ≤2, adequate organ function, measurable or non-measurable disease as determined by Response Evaluation Criteria in Solid Tumors (RECIST) version 1.1.
The starting dose for CLR457 was 5 mg QD, based on preclinical toxicology studies in accordance with ICH guidelines, and was administered at the same time each day ±2 h in a fasted state. Various doses were planned up to 300 mg QD until MTD determination.
Safety was evaluated by incidence, nature, severity, and relatedness of adverse events (AEs), and graded according to National Cancer Institute - Common Terminology Criteria for Adverse Events (NCI CTCAE) v4.0.3. DLTs were defined as any hematologic or non-hematologic ≥ Grade 3 AE assessed as possibly related to CLR457 that occurred within the first cycle (28 days) of treatment. In addition, uncontrolled (> 14 days) Grade 2 rash or hyperglycemia were also considered DLTs. All AEs regardless of attribution were collected until 30 days following the last administration of treatment or study discontinuation/termination.
Descriptive methods were used to tabulate toxicity and response endpoints in the clinical trial. All patients treated with CLR457 were included for safety. […] Dose escalation was guided by an adaptive Bayesian logistic regression model (BLRM) incorporating the escalation with overdose control (EWOC) principle. […] The study data (including DLTs during cycle 1 and other safety and PK data) were reviewed by the sponsor and trial investigators at each dose level. […] The Full Analysis Set (FAS) included all patients who received at least one dose of CLR457. Safety set included all patients who received at least one dose of CLR457 and had at least one valid post-baseline assessment. The Dose-determining set (DDS) included all patients from the safety set who either met the following minimum exposure criterion and had sufficient safety evaluations, or experienced a DLT during Cycle 1 (the first 28 days of dosing). The Pharmacokinetic analysis set included all patients who had at least one blood sample providing evaluable PK data.

C[C@H]1OC(=O)N(c2cc(-c3cnc(N)nc3C(F)(F)F)nc(N3CCOCC3)n2)[C@H]1CO [CLR457]
3 (9.7) n (%): Asthenia, All Grade [1]
16.1%: Drug-related AEs leading to discontinuation of study treatment (in vivo)
29%: Fatigue, any grade [2] | Nausea, any grade [2]
4 (12.9) n (%): Dysgeusia, All Grade [1] | Pyrexia, All Grade [1]
1 (9.1) n (%): Dehydration, All Grade (drug-related, 100 mg, N = 11) | Diarrhea, Grade ≥ 3 (drug-related, 100 mg, N = 11) | Dry mouth, All Grade (drug-related, 100 mg, N = 11) | Dry skin, All Grade (drug-related, 100 mg, N = 11) | Fatigue, Grade ≥ 3 (drug-related, 100 mg, N = 11) | Headache, All Grade (drug-related, 100 mg, N = 11) | Hyperglycemia, Grade ≥ 3 (drug-related, 100 mg, N = 11) | Hypomagnesaemia, All Grade (drug-related, 100 mg, N = 11) | Rash, Grade ≥ 3 (drug-related, 100 mg, N = 11)
6.5%: SAE colitis [3] | SAE diarrhea [3] | SAE pneumonitis [3]
8 (25.8) n (%): Maculo-papular rash, Grade ≥ 3 [1]
2 (6.5) n (%): Chills, All Grade [1] | Colitis, All Grade [1] | Colitis, Grade ≥ 3 [1] | Cough, All Grade [1] | Decreased neutrophil count, All Grade [1] | Dehydration, All Grade [1] | Diarrhea, Grade ≥ 3 [1] | Dry mouth, All Grade [1] | Dry skin, All Grade [1] | Headache, All Grade [1] | Hypomagnesaemia, All Grade [1] | Pneumonitis, All Grade [1] | Pneumonitis, Grade ≥ 3 [1] | Rash, Grade ≥ 3 [1] | Weight decreased, All Grade [1]
14 (45.2) n (%): Stomatitis, All Grade [1]
4 patients: Patients with DLTs (of 31 patients treated, 5-100 mg QD)
22.6%: Decreased appetite, any grade [2] | Hyperglycemia, any grade [2] | SAEs suspected to be related to the study treatment (in vivo)
2 (18.2) n (%): Pneumonitis, All Grade (drug-related, 100 mg, N = 11) | Pneumonitis, Grade ≥ 3 (drug-related, 100 mg, N = 11) | Vomiting, All Grade (drug-related, 100 mg, N = 11)
12 (38.7) n (%): Diarrhea, All Grade [1]
11 (35.5) n (%): Maculo-papular rash, All Grade [1]
35.5%: Maculo-papular rash, any grade [2]
7 (63.6) n (%): Maculo-papular rash, All Grade (drug-related, 100 mg, N = 11)
3 (27.3) n (%): Dysgeusia, All Grade (drug-related, 100 mg, N = 11) | Pruritus, All Grade (drug-related, 100 mg, N = 11) | Pyrexia, All Grade (drug-related, 100 mg, N = 11) | Rash, All Grade (drug-related, 100 mg, N = 11)
6 (19.4) n (%): Rash, All Grade [1]
5 (45.5) n (%): Diarrhea, All Grade (drug-related, 100 mg, N = 11) | Maculo-papular rash, Grade ≥ 3 (drug-related, 100 mg, N = 11)
45.2%: Stomatitis, any grade [2]
9 (81.8) n (%): Stomatitis, All Grade (drug-related, 100 mg, N = 11)
38.7%: Diarrhea, any grade [2]
9 (29.0) n (%): Fatigue, All Grade [1] | Nausea, All Grade [1]
4 (36.4) n (%): Fatigue, All Grade (drug-related, 100 mg, N = 11) | Hyperglycemia, All Grade (drug-related, 100 mg, N = 11) | Nausea, All Grade (drug-related, 100 mg, N = 11)
1 (3.2) n (%): Decreased neutrophil count, Grade ≥ 3 [1] | Dehydration, Grade ≥ 3 [1] | Fatigue, Grade ≥ 3 [1] | Hyperglycemia, Grade ≥ 3 [1]
5 (16.1) n (%): Pruritus, All Grade [1] | Vomiting, All Grade [1]
0 n (%): Dehydration, Grade ≥ 3 (drug-related, 100 mg, N = 11) | Dry mouth, Grade ≥ 3 (drug-related, 100 mg, N = 11) | Dry skin, Grade ≥ 3 (drug-related, 100 mg, N = 11) | Dysgeusia, Grade ≥ 3 (drug-related, 100 mg, N = 11) | Headache, Grade ≥ 3 (drug-related, 100 mg, N = 11) | Hypomagnesaemia, Grade ≥ 3 (drug-related, 100 mg, N = 11) | Nausea, Grade ≥ 3 (drug-related, 100 mg, N = 11) | Pruritus, Grade ≥ 3 (drug-related, 100 mg, N = 11) | Pyrexia, Grade ≥ 3 (drug-related, 100 mg, N = 11) | Stomatitis, Grade ≥ 3 (drug-related, 100 mg, N = 11) | Vomiting, Grade ≥ 3 (drug-related, 100 mg, N = 11) | Weight decreased, All Grade (drug-related, 100 mg, N = 11) | Weight decreased, Grade ≥ 3 (drug-related, 100 mg, N = 11) | Asthenia, Grade ≥ 3 [1] | Chills, Grade ≥ 3 [1] | Cough, Grade ≥ 3 [1] | Decreased appetite, Grade ≥ 3 [1] | Dry mouth, Grade ≥ 3 [1] | Dry skin, Grade ≥ 3 [1] | Dysgeusia, Grade ≥ 3 [1] | Headache, Grade ≥ 3 [1] | Hypomagnesaemia, Grade ≥ 3 [1] | Nausea, Grade ≥ 3 [1] | Pruritus, Grade ≥ 3 [1] | Pyrexia, Grade ≥ 3 [1] | Stomatitis, Grade ≥ 3 [1] | Vomiting, Grade ≥ 3 [1] | Weight decreased, Grade ≥ 3 [1]
7 (22.6) n (%): Decreased appetite, All Grade [1] | Hyperglycemia, All Grade [1]
